Tests used:
[1] = test system: Hut78 cells; test: 72 h IC50 by Alamar blue assay in Hut78; format: cell-based; settings: read-out: 1×IC50 value in Hut78 cells
Description: Experiments were carried out in 96-well plates and the cell lines seeded at a density of 2500/well for H1299, 2500/well or 3000/well for H460, 5000/well for HL-60 cells, and 8,000 cells/well for Hut78, MV4-11 and PL-21 cells. […] Each compound was then tested in combination with CNDAC using three different treatment regimes: concomitant, CNDAC pre-treatment followed by HDAC inhibitor/topoisomerase inhibitor and CNDAC treatment after pre-treatment with HDAC inhibitor/topoisomerase inhibitor.

[2] = test system: Hut78 cells; test: Flow cytometry, propidium iodide DNA content (sub-G1); format: cell-based; settings: for sub-G1 cells, dose dependence: 0.5×-2×IC50, 72 h; for sub-G1 cells, time dependence: 1×IC50, 16, 24, 48 or 72 h
Description: (§1) Hut78 cells were seeded in 10 cm plates at approximately 5×10^5 cells/plate and left to settle for 2 h. […] After treatment, cells were harvested and cell cycle analysis was carried our. Cells were pelleted by centrifugation, washed twice in PBS and then fixed overnight in 70% (v/v) ethanol at −20° C. Cells were stained with 50 μg/ml propidium iodide for 20 min and the DNA content analysed on the flow cytometer. Annexin V staining was performed as indicated in manufacturer's instructions, on live, non-fixed cells.
After drug treatment, cells were then harvested, stained with propidium iodide and their DNA content analysed by flow cytometry.
After treatment, cells were then harvested, stained with propidium iodide and their DNA content analysed by flow cytometry.

[3] = test system: Hut78 cells; test: Flow cytometry, Annexin V staining; format: cell-based; settings: IC50, 24 h, 48 h or 72 h
Description: as §1
Cells were then harvested, stained with annexin V and analysed on the flow cytometer. Data are representative of two independent experiments. Annexin V labels live cells that are undergoing apoptosis or already dead. […] The synergy detected in the calcusyn analysis (Table 1) is therefore likely to be mainly due to inhibition of cell proliferation.

[4] = test system: Hut78 cells; test: Western blotting analysis in Hut78 cells; format: cell-based; settings: 1×IC50, western blot
Description: Protein lysates were generated from 10 cm plates that were seeded at approximately 5×10^5 cells/well, in medium containing 10% FCS. […] Cells were collected by centrifugation (5 min×2,000 g), washed once with ice-cold buffer A (50 mM HEPES, pH 7.0, 20 mM NaCl, 1 mM DTT, protease inhibitors, 10 mM Sodium pyrophosphate, 10 mM Sodium Fluoride and 1 mM Sodium Orthovanadate), and resuspended in 0.3 ml of the same buffer. Cells were lysed by sonication (2×3 s bursts with probe sonicator), and the protein concentration of each tube determined using the BCA assay. Lysates (20-30 μg protein loaded/well) were resolved on Bis-Tris gels containing 10 or 12% acrylamide and transferred to nitrocellulose for analysis by western blotting. Membranes were blocked for 1 h at room temperature in PBS containing 0.02% (v/v) Tween 20 and 5% (w/v) fat-free dried milk. Antibody incubations were carried out overnight at 2-8° C. in PBS containing 0.02% (v/v) Tween 20 (PBST) containing 3% (w/v) dried milk. Nitrocellulose membranes were probed with the following antibodies:
Membranes were then washed three times in PBST, and then incubated for 1 h with the appropriate horseradish peroxidase-conjugated secondary antibody (Perbio) at 1:5,000 dilution. Finally, the membranes were washed three times in PBST prior to development using an enhanced chemiluminescence kit (Amersham Corporation, Buckinghamshire, U.K.) or the Millipore Immobilon HRP substrate.
Cells were harvested and the resulting cell lysates analysed by western blotting with the indicated antibodies. Data are representative of two independent experiments (FIG. 5). […] Homologous recombination is one of the major repair pathways for double strand DNA breaks, and RAD51 plays a key role in homologous recombination.

[5] = test system: p388 mouse leukaemia; test: p388 mouse leukaemia xenograft, survival; format: in vivo; settings: P388 mouse model; CYC682 20 mg/kg PO QD×5×2, SAHA 75 mg/kg IP QD×12; compared to vehicle control
From the text: The p388 mouse leukaemia xenograft assesses drug combinations by the survival times of the mice in the various treatment arms.

[6] = test system: H358 cells; test: H358 xenograft tumour growth; format: in vivo, mice (nu/nu); settings: for mean tumour volume: day 22, sapacitabine 15 mg/kg oral, irinotecan 50 mg/kg i.p. weekly, SAHA 50 mg/kg oral
Description: Female mice (nu/nu) were obtained from Harlan. Animals were injected subcutaneously with ˜1×10^7 H358 cells/mouse at a single site on their flanks. Tumours were allowed to grow to ˜127 mm^3 before being pair-matched by tumour size into treatment groups (10 mice/group). One group was treated with sapacitabine (15 mg/kg) once daily by oral gavage for five consecutive days followed by a two day break; the treatment was then repeated for a total of three cycles. Irinotecan (50 mg/kg) was treated once weekly by intraperitoneal injection for three weeks. […] Mice were weighed at least twice a week to assess toxicity of the treatments and the tumours were measured with calipers at least twice a week to determine tumour growth. The tumour measurements were converted into volumes using the formula: tumour volume (mm^3)=width^2 (mm)×length (mm)×0.52. The percent tumour growth inhibition was determined with the formula: 1−(Change in treated tumour volume/change in control tumour volume)×100%. Statistical significance was determined using a two sided unpaired Student's T-test.

[7] = test system: colon cancer; settings: model of colon cancer, cited from earlier work
[8] = human, in vivo; cited from earlier work

| Compound | IC50 [1] | sub-G1 cells, dose dependence [2] | sub-G1 cells, time dependence [2] | sub-G1 cells, share of the cell population ([2]; 1×IC50, by 72 h) | apoptotic/dead cells (annexin V) [3] | H2A.X phosphorylation at serine 139 [4] | Mcl-1 [4] | Acetyl-histone H4 [4] | survival [5] | effect on tumour growth (in words) ([6]; day 22) | mean tumour volume [6] | tumour growth inhibition (% TGI) ([6]; day 22) | anticancer activity [7] | increasing survival and preventing the spread of colon cancer metastases to the liver ([7]; versus gemcitabine or 5-FU) | tolerability, dose limiting toxicity [8] |
| --- | --- | --- | --- | --- | --- | --- | --- | --- | --- | --- | --- | --- | --- | --- | --- |
| N#C[C@H]1[C@H](O)[C@@H](CO)O[C@H]1n1ccc(N)nc1=O [CNDAC, 1-(2-C-cyano-2-deoxy-β-D-arabino-pentafuranosyl)-cytosine] | 360 nM | dose-dependent increase in sub-G1 cells | time-dependent increase in sub-G1 cells that became apparent by 48 h treatment | ~30% | time-dependent increase in apoptotic/dead cells | increase in H2A.X phosphorylation at serine 139 | decrease in Mcl-1 | – | – | – | – | – | – | – | – |
| O=C(CCCCCCC(=O)Nc1ccccc1)NO [SAHA, suberoylanilide hydramic acid, reference compound] | – | little effect on the cell cycle, except at 2×IC50, where it induced a small increase in sub-G1 cells | small increase in sub-G1 cells | – | negligible increase in dead/dying cells | – | – | increase in Acetyl-histone H4 | very little effect on survival | no effect on tumour growth | 517 mm^3 | – | – | – | – |
| CCc1c2c(nc3ccc(OC(=O)N4CCC(N5CCCCC5)CC4)cc13)-c1cc3c(c(=O)n1C2)COC(=O)[C@]3(O)CC [irinotecan] | – | – | – | – | – | – | – | – | – | – | – | ~75% | – | – | – |
| CCCCCCCCCCCCCCCC(=O)Nc1ccn([C@@H]2O[C@H](CO)[C@@H](O)[C@@H]2C#N)c(=O)n1 [sapacitabine, 2′-cyano-2′-deoxy-N^4-palmitoyl-1-β-D-arabinofuranosylcytosine] | – | – | – | – | – | – | – | – | significant increase in the survival time | – | 229 mm^3 | ~75% | strong anticancer activity | superior to either gemcitabine or 5-FU | well tolerated in humans, with myelosuppression as the dose limiting toxicity |

Reference: patent US8349792B2, “Combination comprising CNDAC (2′-cyano-2′-deoxy-N4-palmitoyl-1-beta-D-arabinofuranosyl-cytosine) and a cytotoxic agent” (priority 2006, dated 2013)
